Measured values taken from patent US4472304A, “(Amido)N-substituted bleomycins, salts thereof and process for preparation thereof” (Nippon Kayaku Kabushiki Kaisha, priority 1981, dated 1984).

Columns and labels:
[1] = system: Mycobacterium smegmatis ATCC 607; assay: Antimicrobial activity against Mycobacterium smegmatis ATCC 607 (agar plate-cylinder); format: cell-based; conditions: standard bleomycin A2 (copper-free) assumed 1,000 mcg potency/mg
Description: (§1) 2. ANT[…] MYC[…] ATCC 607 AND BACILLUS SUBTILIS
(§2) The antimicrobial activity was tested against the captioned test organisms by the method of agar plate-cylinder. The activity was recorded on the assumption that the activity of standard sample of bleomycin A2 (copper-free form) is 1,000 mcg poteney/mg.

pulmonary fibrosis = assay: Pulmonary toxicity (pulmonary fibrosis) in mice; conditions: for Incidence: Number of mice with pulmonary fibrosis (%) / Incidence: Number of mice with pulmonary fibrosis / Grade: Total score of pulmonary fibrosis/total number of samples / Grade: Total score of pulmonary fibrosis/total number of samples (%): ICR mice, 5 mg/kg i.p. once a day for 10 days; for Incidence: Number of mice with pulmonary fibrosis (%) / Incidence: Number of mice with pulmonary fibrosis: 5 weeks observation; for Incidence: Number of mice with pulmonary fibrosis: mice with fibrosis/total; for Grade: Total score of pulmonary fibrosis/total number of samples / Grade: Total score of pulmonary fibrosis/total number of samples (%): points 0, 1, 2, 4, 6; for Ratio (by comparison with "Bleomycin Complex"): versus Bleomycin Complex
Bacillus subtilis = assay: Antimicrobial activity against Bacillus subtilis (agar plate-cylinder); format: cell-based; conditions: standard bleomycin A2 (copper-free) assumed 1,000 mcg potency/mg
Description: as §1, §2

SMILES	Antimicrobial potency of Cu-free compound against Mycobacterium smegmatis ATCC 607 [1] [mcg potency/mg]	Incidence: Number of mice with pulmonary fibrosis (%) (pulmonary fibrosis)	Incidence: Number of mice with pulmonary fibrosis (pulmonary fibrosis)	Grade: Total score of pulmonary fibrosis/total number of samples (pulmonary fibrosis)	Grade: Total score of pulmonary fibrosis/total number of samples (%) (pulmonary fibrosis)	Ratio (by comparison with "Bleomycin Complex") (pulmonary fibrosis)	Antimicrobial potency of Cu-free compound against Bacillus subtilis (Bacillus subtilis) [mcg potency/mg]
Cc1c(N)nc(C(CC(N)=O)NCC(N)C(=O)NCCN2CCNCC2)nc1C(=O)NC(C(=O)NC(C)C(O)C(C)C(=O)NC(C(=O)NCCc1nc(-c2nc(C(=O)NCCCNC(C)c3ccccc3)cs2)cs1)C(C)O)C(OC1OC(CO)C(O)C(O)C1OC1OC(CO)C(O)C(OC(N)=O)C1O)c1cnc[nH]1 [Compound 33, 3-((S)-1'-phenylethylamino)propylamino-(amido)N--[2-(1-piperazinyl)ethyl]-BLM]	6359	56	5/9	11/27	41	0.44	5009
CCCCCCCCNC(=O)C(N)CNC(CC(N)=O)c1nc(N)c(C)c(C(=O)NC(C(=O)NC(C)C(O)C(C)C(=O)NC(C(=O)NCCc2nc(-c3nc(C(=O)NCCC[N+](C)(CCCN(Cc4ccccc4)Cc4ccccc4)Cc4ccccc4)cs3)cs2)C(C)O)C(OC2OC(CO)C(O)C(O)C2OC2OC(CO)C(O)C(OC(N)=O)C2O)c2cnc[nH]2)n1 (stereo not shown) [Compound 48, 3-{N--methyl-N--benzyl-N--[3-dibenzylamino)proplyamino}-propylamino-(amido)N--[octyl]-BLM]	2580	0	0/8	0/24	0	0	130
CCCCN(CCCC)CCCNC(=O)C(N)CNC(CC(N)=O)c1nc(N)c(C)c(C(=O)NC(C(=O)NC(C)C(O)C(C)C(=O)NC(C(=O)NCCc2nc(-c3nc(C(=O)NCCC[N+](C)(C)CCCN(Cc4ccccc4)Cc4ccccc4)cs3)cs2)C(C)O)C(OC2OC(CO)C(O)C(O)C2OC2OC(CO)C(O)C(OC(N)=O)C2O)c2cnc[nH]2)n1 (stereo not shown) [Compound 54]	32633	0	0/9	0/27	0	0	2663
Cc1c(N)nc(C(CC(N)=O)NCC(N)C(=O)NCCCNC(C)c2ccccc2)nc1C(=O)NC(C(=O)NC(C)C(O)C(C)C(=O)NC(C(=O)NCCc1nc(-c2nc(C(=O)NCCCN(C)CCCNCC3CCCCCCC3)cs2)cs1)C(C)O)C(OC1OC(CO)C(O)C(O)C1OC1OC(CO)C(O)C(OC(N)=O)C1O)c1cnc[nH]1 [Compound 60, 3-{N--methyl-N--[3-(cyclooctylmethyl)aminopropyl]amino}-propylamino-(amido)N--[3-((S)-1'-phenylethylamino)propyl]-BLM]	54345	0	0/9	0/27	0	0	7273
